Source: BindingDB's records for doi:10.1016/j.bmcl.2006.12.077 (Glaxosmithkline, 2007)

Target: Vascular endothelial growth factor receptor 2 (Homo sapiens, UniProt P35968)
Experiment: Homogeneous Time-Resolved Fluorescence (HTRF) Enzyme Assay
Settings: pH 7.5; 22 °C
Method: The assay uses purified GST-Tie-2 or GST-6x His-VEGFR2 interacting with biotinylated peptide substrates. HTRF is based on the proximity of europium cryptate (donor fluorophore)-labeled antiphosphotyrosine and streptavidin labeled with APC (allophycocyanin), which have been brought together by a binding reaction. When the two entities come into close proximity and upon excitation, energy transfer occurs and APC re-emits at 665 nm. The IC50 values for inhibitors were determined by a four-parameter sigmoidal curve fit.

Vascular endothelial growth factor receptor 2, sequence (P35968 whole entry): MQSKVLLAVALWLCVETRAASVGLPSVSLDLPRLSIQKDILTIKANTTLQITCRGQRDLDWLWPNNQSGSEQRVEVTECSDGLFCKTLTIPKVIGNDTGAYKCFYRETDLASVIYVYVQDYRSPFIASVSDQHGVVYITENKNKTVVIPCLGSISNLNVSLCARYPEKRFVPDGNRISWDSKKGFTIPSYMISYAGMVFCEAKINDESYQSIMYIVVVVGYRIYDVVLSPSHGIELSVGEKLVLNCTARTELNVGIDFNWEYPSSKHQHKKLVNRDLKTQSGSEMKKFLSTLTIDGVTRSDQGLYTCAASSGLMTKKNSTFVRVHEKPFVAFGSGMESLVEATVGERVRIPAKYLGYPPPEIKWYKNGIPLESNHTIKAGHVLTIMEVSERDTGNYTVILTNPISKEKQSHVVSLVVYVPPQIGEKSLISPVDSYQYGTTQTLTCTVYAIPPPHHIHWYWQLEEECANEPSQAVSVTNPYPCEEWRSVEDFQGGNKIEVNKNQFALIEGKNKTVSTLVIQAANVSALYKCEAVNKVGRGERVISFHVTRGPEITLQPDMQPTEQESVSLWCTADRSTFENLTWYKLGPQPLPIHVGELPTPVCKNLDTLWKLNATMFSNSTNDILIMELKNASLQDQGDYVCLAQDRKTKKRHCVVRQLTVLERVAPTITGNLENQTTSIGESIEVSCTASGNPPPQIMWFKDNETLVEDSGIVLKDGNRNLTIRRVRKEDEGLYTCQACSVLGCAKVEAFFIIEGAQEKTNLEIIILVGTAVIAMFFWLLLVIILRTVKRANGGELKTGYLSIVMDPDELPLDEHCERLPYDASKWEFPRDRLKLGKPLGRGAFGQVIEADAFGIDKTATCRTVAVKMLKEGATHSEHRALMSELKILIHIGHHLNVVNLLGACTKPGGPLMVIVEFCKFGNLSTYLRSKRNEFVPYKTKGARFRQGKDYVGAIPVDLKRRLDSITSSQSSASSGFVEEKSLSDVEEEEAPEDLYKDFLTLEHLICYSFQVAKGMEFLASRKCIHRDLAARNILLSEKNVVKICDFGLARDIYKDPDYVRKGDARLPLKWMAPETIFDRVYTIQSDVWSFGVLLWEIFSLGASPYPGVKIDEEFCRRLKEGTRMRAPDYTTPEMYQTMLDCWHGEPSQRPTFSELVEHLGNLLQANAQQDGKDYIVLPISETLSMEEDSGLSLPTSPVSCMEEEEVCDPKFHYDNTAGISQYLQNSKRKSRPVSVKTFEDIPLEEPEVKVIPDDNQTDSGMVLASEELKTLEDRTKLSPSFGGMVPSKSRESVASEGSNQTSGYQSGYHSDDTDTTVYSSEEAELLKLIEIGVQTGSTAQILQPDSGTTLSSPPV

| IC50 | SMILES |
| --- | --- |
| 15.5 nM | COc1ccc(-c2oc3ncnc(N)c3c2-c2ccc(NC(=O)Nc3cc(C(F)(F)F)ccc3F)cc2)cc1 [3-{4-[4-amino-6-(4-methoxyphenyl)furo[2,3-d]pyrimidin-5-yl]phenyl}-1-[2-fluoro-5-(trifluoromethyl)phenyl]urea] |
| 138 nM | Nc1ncnc2occ(-c3ccc(NC(=O)Nc4cc(C(F)(F)F)cc(C(F)(F)F)c4)cc3)c12 [3-(4-{4-aminofuro[2,3-d]pyrimidin-5-yl}phenyl)-1-[3,5-bis(trifluoromethyl)phenyl]urea] |
